Results taken from PMC3265452 (PLoS Neglected Tropical Diseases, 2012).
Structures can show the parent of a compound that is named as a salt. Where two headings read alike, the source gives them in different places.

Molecular target: AaDOP2 (Aedes aegypti, UniProt H6D5H2)
Test: AaDOP2 antagonist screen of the LOPAC1280 library (HEK-CRELuc-Aadop2 cells, luminescence)
Assay type: cell-based
[1] = 10 µM compound, 300 nM dopamine, 2 hr, hit = compound effect <20

Sequence of AaDOP2 (H6D5H2 1-476): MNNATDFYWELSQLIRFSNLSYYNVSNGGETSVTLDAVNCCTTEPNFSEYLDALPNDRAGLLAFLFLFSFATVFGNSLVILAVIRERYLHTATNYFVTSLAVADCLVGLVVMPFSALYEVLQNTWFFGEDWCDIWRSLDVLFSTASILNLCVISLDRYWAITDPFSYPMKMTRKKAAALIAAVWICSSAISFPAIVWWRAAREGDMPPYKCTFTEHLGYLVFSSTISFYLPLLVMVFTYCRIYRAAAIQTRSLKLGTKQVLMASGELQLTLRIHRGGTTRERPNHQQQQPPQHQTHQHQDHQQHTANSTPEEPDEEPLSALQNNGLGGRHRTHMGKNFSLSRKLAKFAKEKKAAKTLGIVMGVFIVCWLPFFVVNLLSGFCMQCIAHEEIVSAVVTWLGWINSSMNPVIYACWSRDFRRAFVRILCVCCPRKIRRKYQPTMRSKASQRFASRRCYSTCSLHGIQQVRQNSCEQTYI

Row | Structure (SMILES) | Compound effect (percent receptor signaling in presence of test compound, relative lux units relative to the SCH23390 control) | Compound effect (percent receptor signaling in presence of test compound, relative lux units relative to the SCH23390 control) [1] [%]
1 | CCC1(C)CC(=O)NC1=O (stereo not drawn) [Compound 494, Ethosuximide] | 146 | –
2 | O=C(O)[C@@H]1[C@H](C(=O)O)[C@H]2CC[C@@H]1O2 [Compound 495, Endothall] | 117 | –
3 | Cc1cc(O)c2c(c1)C(=O)c1cc(O)cc(O)c1C2=O [Compound 496, Emodin] | 49 | –
4 | CNC(=O)Oc1ccc2c(c1)[C@]1(C)CCN(C)[C@@H]1N2C [Compound 497, (-)-Physostigmine] | 93 | –
5 | CCCN(CC1CC1)c1nc(C)nc(Nc2c(Cl)cc(Cl)cc2Cl)c1Cl [Compound 498, NBI 27914] | 90 | –
6 | C[C@]12CC[C@@H]3c4ccc(O)cc4CC[C@H]3[C@@H]1CC[C@@H]2O [Compound 499, beta-Estradiol] | 112 | –
7 | C[C@]12CC[C@@H]3c4ccc(O)cc4CC[C@H]3[C@@H]1CCC2=O [Compound 500, Estrone] | 91 | –
8 | COC(=O)c1cc2c(cn1)[nH]c1ccccc12 [Compound 501, Methyl beta-carboline-3-carboxylate] | 118 | –
9 | CNC(=O)c1cc2c(cn1)[nH]c1ccccc12 [Compound 502, N-Methyl-beta-carboline-3-carboxamide] | 80 | –
10 | CCc1c(C(=O)OC)ncc2[nH]c3cc(OC)c(OC)cc3c12 [Compound 503, Methyl 6,7-dimethoxy-4-ethyl-beta-carboline-3-carboxylate] | 79 | –
11 | CCc1cc(Cl)c(OC)c(C(=O)NC[C@@H]2CCCN2CC)c1O.Cl [Compound 505, S-(-)-Eticlopride hydrochloride] | – | 85
12 | OC[C@H]1O[C@@H](n2cnc3c(N[C@H]4CC5CCC4C5)ncnc32)[C@H](O)[C@@H]1O (stereo partly drawn) [Compound 506, (S)-ENBA] | – | 112
13 | CCCCCCC(C(C)O)n1cnc2c(N)ncnc21.Cl (stereo not drawn) [Compound 507, erythro-9-(2-Hydroxy-3-nonyl)adenine hydrochloride] | – | 128
14 | CC(C)[C@@]1(NC(=O)[C@@H]2C=C3c4cccc5[nH]cc(c45)C[C@H]3N(C)C2)O[C@@]2(O)[C@@H]3CCCN3C(=O)[C@H](Cc3ccccc3)N2C1=O [Compound 508, Ergocristine] | 100 | –
15 | NC(=O)OCC(COC(N)=O)c1ccccc1 [Compound 509, Felbamate] | 113 | –
16 | CC(=O)O[C@H]1C[C@@]2(C)[C@@H](C[C@@H](O)[C@H]3[C@@]4(C)CC[C@@H](O)[C@@H](C)[C@@H]4CC[C@@]32C)/C1=C(\CCC=C(C)C)C(=O)[O-].[Na+] [Compound 510, Fusidic acid sodium] | – | 131
17 | CC(Cc1ccc(O)cc1)NCC(O)c1cc(O)cc(O)c1 (stereo not drawn) [Compound 511, Fenoterol hydrobromide] | 136 | –
18 | CNCC[C@H](Oc1ccc(C(F)(F)F)cc1)c1ccccc1.Cl [Compound 512, S-(+)-Fluoxetine hydrochloride] | 77 | –
19 | CNCC[C@@H](Oc1ccc(C(F)(F)F)cc1)c1ccccc1.Cl [Compound 513, R-(-)-Fluoxetine hydrochloride] | 79 | –
20 | COCCCC/C(=N\OCCN)c1ccc(C(F)(F)F)cc1 [Compound 514, Fluvoxamine maleate] | 114 | –
21 | COc1ccc2c(c1)c(CC(=O)O)c(C)n2Cc1ccc(F)cc1 [Compound 515, 1-(4-Fluorobenzyl)-5-methoxy-2-methylindole-3-acetic acid] | 103 | –
22 | O=C([O-])c1cc2cc(Cc3cccnc3)ccc2o1.[Na+] [Compound 516, Furegrelate sodium] | – | 146
23 | COc1cccc2c1[C@@H]1CN(CCCCn3c(=O)[nH]c4c(sc5ncc(-c6ccccc6)nc54)c3=O)C[C@@H]1CO2 [Compound 517, Fiduxosin hydrochloride] | 69 | –
24 | NS(=O)(=O)c1cc(C(=O)O)c(NCc2ccco2)cc1Cl [Compound 518, Furosemide] | 129 | –
25 | N[C@@H](Cc1ccc(F)cc1)C(=O)O [Compound 519, p-Fluoro-L-phenylalanine] | – | 97
26 | CC(C)OC(=O)C(C)(C)Oc1ccc(C(=O)c2ccc(Cl)cc2)cc1 [Compound 521, Fenofibrate] | 95 | –

Row | Structure (SMILES) | Compound effect (percent receptor signaling in presence of test compound, relative lux units relative to the SCH23390 control) | Compound effect (percent receptor signaling in presence of test compound, relative lux units relative to the SCH23390 control) [1] [%]
27 | O=C1NCC2(CCN(CCc3ccccc3)CC2)O1 [Compound 522, Fenspiride hydrochloride] | 98 | –
28 | CCOC(=O)c1ncn2c1CN(C)C(=O)c1cc(F)ccc1-2 [Compound 523, Flumazenil] | 124 | –
29 | COc1cc(=O)n(C)c2c(OCC(O)C(C)(C)O)cccc12 (stereo not drawn) [Compound 524, Foliosidine] | – | 190
30 | CCCCc1ccc(C(=O)O)nc1 [Compound 525, Fusaric acid] | 152 | –
31 | O=c1[nH]cc(F)c(=O)[nH]1 [Compound 526, 5-Fluorouracil] | 156 | –
32 | O=C(NCC1CCCCN1)c1cc(OCC(F)(F)F)ccc1OCC(F)(F)F (stereo not drawn) [Compound 527, Flecainide acetate] | 111 | –
33 | Oc1ccc(C2CNCCc3c2cc(O)c(O)c3Cl)cc1 (stereo not drawn) [Compound 528, Fenoldopam bromide] | 112 | –
34 | C=C[C@@]1(C)CC(=O)[C@]2(O)[C@@]3(C)[C@@H](O)CCC(C)(C)[C@@H]3[C@H](O)[C@H](OC(C)=O)[C@@]2(C)O1 [Compound 529, Forskolin] | 46 | –
35 | NC(N)=Nc1nc(CSCCC(N)=NS(N)(=O)=O)cs1 [Compound 530, Famotidine] | 115 | –
36 | CCCn1c(=O)c2[nH]c(C3CCCC3)nc2n(CCCOC(=O)c2ccc(S(=O)(=O)F)cc2)c1=O [Compound 531, FSCPX] | – | 97
37 | CC(C)=CCC/C(C)=C/CC/C(C)=C/CSc1ccccc1C(=O)O [Compound 532, Farnesylthiosalicylic acid] | – | 120
38 | Fc1ccc(C(c2ccc(F)cc2)N2CCN(C/C=C/c3ccccc3)CC2)cc1 [Compound 533, Flunarizine dihydrochloride] | 71 | –
39 | C[C@H]1O[C@@H](n2cc(F)c(=O)[nH]c2=O)[C@H](O)[C@@H]1O [Compound 534, 5-fluoro-5'-deoxyuridine] | 111 | –
40 | CC(C)C(=O)Nc1ccc([N+](=O)[O-])c(C(F)(F)F)c1 [Compound 536, Flutamide] | 99 | –
41 | CC(C)(C(=O)O)c1ccc(C(O)CCCN2CCC(C(O)(c3ccccc3)c3ccccc3)CC2)cc1 (stereo not drawn) [Compound 537, Fexofenadine hydrochloride] | 87 | –
42 | CCOC(=O)C1=C(C)NC(C)=C(C(=O)OC)C1c1cccc(Cl)c1Cl (stereo not drawn) [Compound 539, Felodipine] | 96 | –
43 | O=C1NCN(c2ccccc2)C12CCN(CCCC(c1ccc(F)cc1)c1ccc(F)cc1)CC2 [Compound 540, Fluspirilene] | 53 | –
44 | Cc1nc2c([nH]1)c(=O)n(C)c(=O)n2Cc1ccco1 [Compound 542, Furafylline] | 120 | –
45 | COC(=O)c1c(C)[nH]c(C)c1C(=O)c1ccccc1Cc1ccccc1 [Compound 543, FPL 64176] | 86 | –
46 | CNCCC(Oc1ccc(C(F)(F)F)cc1)c1ccccc1 (stereo not drawn) [Compound 544, Fluoxetine hydrochloride] | 118 | –
47 | NCC(=O)NCCC(c1ccccc1)c1ccccc1 [Compound 545, N-(3,3-Diphenylpropyl)glycinamide] | 105 | –
48 | COc1ccc(Cl)cc1C(=O)NCCc1ccc(S(=O)(=O)NC(=O)NC2CCCCC2)cc1 [Compound 546, Glibenclamide] | 118 | –
49 | CN(C)c1cc2c(Nc3ccc4c(cnn4Cc4ccccc4)c3)ncnc2cn1 [Compound 547, GW2974] | 68 | –
50 | N=C(N)NC(=O)Cc1c(Cl)cccc1Cl [Compound 548, Guanfacine hydrochloride] | 112 | –
51 | Cl.N[C@@H](CCC(=O)O)C(=O)O [Compound 549, L-Glutamic acid hydrochloride] | – | 93
